Laboratory results reported in patent publication US10898539B2, “Process for the synchronization of ovulation for timed breeding without heat detection” (priority 2003, dated 2021).

How the values were obtained:
Assay type in all cases: in vivo, swine
postpartum sows [1] = assay: Single timed injection 96 hours post-weaning and single timed insemination without estrus detection in postpartum sows (Example 3); conditions: 50 mcg at 96 hours post-weaning
Method: (§1) Approximately 170 postpartum sows were randomly divided into two equal groups comprised of controls and treated. Following weaning, the controls were detected for estrus and bred following the normal standard operating procedures for the farms on which they resided. The treated sows received a 50 mcg dose of deslorelin in SAIB at 96 hours post-weaning and were bred with a single insemination 28+/−2 hours later with no regard to estrus detection. The sows were examined for pregnancy by ultrasound at 21 days and slaughtered around 28 days post breeding. The entire reproductive tract was removed and corpora lutea and embryos were counted.

postpartum sows [2] = assay: Pregnancy rate after deslorelin treatment in sows, summary of Tables 2-5
Method: as §1, with “counted. Postpartum sows were randomly distributed into three different groups comprised of Controls, Treatment 1, and Treatment 2, with the exception of Site 3, which was divided into two groups, Control and Treatment 2. Control sows were detected for estrus following weaning, and bred following the normal standard operating procedures for the farms on which they resided. Treatment 1 sows were detected for estrus following weaning, and received a 50 mcg dose of deslorelin in the morning when standing and were bred by AI 4 hours later and again at 24+/−2 hours later. Treatment 2 sows received a 50 mcg dose of deslorelin in SAIB at 96 or 120 hours post-weaning and were bred with a single insemination 28+/−2 hours later with no regard to estrus detection. […]” for “counted.”

postpartum sows [3] = assay: Litter size after deslorelin treatment in postpartum sows at three farm sites (Example 4)
Description: Postpartum sows were randomly distributed into three different groups comprised of Controls, Treatment 1, and Treatment 2, with the exception of Site 3, which was divided into two groups, Control and Treatment 2. Control sows were detected for estrus following weaning, and bred following the normal standard operating procedures for the farms on which they resided. Treatment 1 sows were detected for estrus following weaning, and received a 50 mcg dose of deslorelin in the morning when standing and were bred by AI 4 hours later and again at 24+/−2 hours later. Treatment 2 sows received a 50 mcg dose of deslorelin in SAIB at 96 or 120 hours post-weaning and were bred with a single insemination 28+/−2 hours later with no regard to estrus detection.

mature postpartum sows = assay: Intravulvar injection at estrus detection in mature postpartum sows, AI breeding (Example 2)
Method: Sows were assigned randomly in blocks of two to either control or to be injected intravulvar with 50 mcg of deslorelin in SAIB at the time of estrus detection for sows first detected in estrus in the a.m. and 12 hours later for those first detected in estrus in the p.m. Treated animals were bred AI upon detected estrus and again 24 hours later if still in estrus. Controls received a saline injection on first detected estrus behavior estrus detection and were bred according to the farm's normal procedures.

[4] = slaughtered around 28 days post breeding
[5] = Site 1, Treatment 1: 50 mcg when standing in estrus, AI 4 hours later and again at 24+/-2 hours
[6] = Site 1, Treatment 2: 50 mcg in SAIB at 96 or 120 hours post-weaning, single insemination 28+/-2 hours later, no estrus detection
[7] = Site 2, Treatment 1: 50 mcg when standing in estrus, AI 4 hours later and again at 24+/-2 hours
[8] = Site 2, Treatment 2: 50 mcg in SAIB at 96 or 120 hours post-weaning, single insemination 28+/-2 hours later, no estrus detection
[9] = Site 3, Treatment 2: 50 mcg in SAIB at 96 or 120 hours post-weaning, single insemination 28+/-2 hours later, no estrus detection
[10] = 50 μg intravulvar at first estrus detection, AI, AI again if in estrus next day

CCNC(=O)[C@@H]1CCCN1C(=O)[C@H](CCCN=C(N)N)NC(=O)[C@H](CC(C)C)NC(=O)[C@@H](Cc1c[nH]c2ccccc12)NC(=O)[C@H](Cc1ccc(O)cc1)NC(=O)[C@H](CO)NC(=O)[C@H](Cc1c[nH]c2ccccc12)NC(=O)[C@H](Cc1cnc[nH]1)NC(=O)[C@@H]1CCC(=O)N1 [Deslorelin, deslorelin]
Pregnancy Rate (postpartum sows [1]; single insemination 28+/-2 hours later, no estrus detection): 71%
Sows Pregnant (postpartum sows [1]; single insemination 28+/-2 hours later, 84 sows in group): 60
Embryo Survival (postpartum sows [1]; [4]): 64%
Live Embryos (postpartum sows [1]; [4]): 13.4
pregnancy rates (in words) (postpartum sows [2]; Table 6): normal pregnancy rates
Number Pregnant (postpartum sows [2]; Treatment 2 (timed injection, single timed insemination), 250 sows in group, data of Tables 2-5 summarized): 177
% Pregnant (postpartum sows [2]; Treatment 2 (timed injection, single timed insemination), data of Tables 2-5 summarized): 70.80%
Avg. Total Live Pigs (postpartum sows [3]; [5]): 11.03
Avg. Total Pigs Born (postpartum sows [3]; [5]): 12.10
Avg. Total Live Pigs (postpartum sows [3]; [6]): 11.24
Avg. Total Pigs Born (postpartum sows [3]; [6]): 12.37
Avg. Total Live Pigs (postpartum sows [3]; [7]): 10.25
Avg. Total Pigs Born (postpartum sows [3]; [7]): 11.21
Avg. Total Live Pigs (postpartum sows [3]; [8]): 10.02
Avg. Total Pigs Born (postpartum sows [3]; [8]): 10.88
Avg. Total Live Pigs (postpartum sows [3]; [9]): 10.27
Avg. Total Pigs Born (postpartum sows [3]; [9]): 11.09
litter sizes (in words) (postpartum sows [3]; Tables 3-5, regardless of estrus detection): normal litter sizes
Length of Estrus (mature postpartum sows; [10]): 40.81 (n = 69) Hrs.
Pregnancy Rate (mature postpartum sows; [10]): 91% (n = 75)
pregnancy rates, Control versus Treated groups (in words) (mature postpartum sows; 50 mcg intravulvar at estrus detection): no significant difference
